Experimental data taken from patent US8603967B2, “Carrier peptide fragment and use thereof” (Toagosei Co., Ltd., priority 2009, dated 2013).

Test system: Human neonate fibroblasts (ATCC cell line CCD-1079sk)
Assay: Evaluation of cell membrane permeability function (fluorescence antibody technique, confocal microscopy)
Format: cell-based
Details: 3.5 μg/mL in liquid culture medium, cultured 2 hours, FIG. 2
Procedure: Human neonate fibroblasts (ATCC cell line CCD-1079sk) were used as the eukaryotic cells, and the cell membrane permeability capability of the 2 samples (constructs for transferring a foreign substance) obtained in Example 1 above was investigated.
More specifically, approximately 2×10^4 cells were cultured on a collagen-coated S-well slide overnight at 37° C. in 5% CO2 using a liquid culture medium (Eagle's MEM medium: comprising 0.1 mM NeAA, 1 mM sodium pyruvate, Earle's BSS (product of GIBCO) with 10% FBS (product of GIBCO).
The purified polypeptides obtained above were added to the cell culture (1.5 μg/mL of the polypeptide of Sample No. 1 and 3.5 μg/mL of the polypeptide of Sample No. 2), and culturing was continued for another 2 hours.
Then the supernatant was removed, the abovementioned D-PBS was added, and the cells were rinsed 3 times therewith on ice. Next, ice-cold methanol was added and the samples were let stand for 10 min at −20° C. to fix the cells. Then the methanol was removed, PBS solution containing 5% normal goat serum (product of MBL) was added, and blocking was carried out at room temperature for 1 hour. […]

Q: How did the “location of the polypeptide transferred into the cells (nuclear translocation)” value (anti-GFP antibody staining merged with DAPI) turn out when “Sample No. 2: Fusion polypeptide (SEQ ID NO: 7): Met, NoLS carrier KKRTLRKNDRKKR fused to N-terminal end of GFP, C-terminal polyhistidine tag” was run?
A: transferred (translocated) to the nucleus and localized therein

Q: What about the “transfer of the polypeptide into the cells” value (anti-GFP antibody staining) of the same substance?
A: transfer of the polypeptide into the cells can be seen
